# Test results from patent publication US20230365682A1, “COMBINATION THERAPY FOR TREATING COLORECTAL CANCER” (Gilead Sciences, Inc., priority 2022, published 2023).
# Entries after “also recorded” stand apart in the source; their conditions may differ.
# What was measured:
# [1] = Clinical safety of magrolimab; details: human, in vivo
# Protocol: In the first-in-human study of magrolimab in patients with solid tumors and lymphomas, after an initial priming dose of 1 mg/kg on the first day, magrolimab was tested as a monotherapy at weekly doses of up to 45 mg/kg. The use of an initial 1 mg/kg priming dose was integrated into the dosing regimen to mitigate the on-target anemia induced by CD47 blockade. An initial priming dose leads to elimination of aged RBCs that are sensitive to CD47 blockade and triggers reticulocytosis of young RBCs that are not affected by CD47 blockade (Chen, et al., Blood (ASH Annual Meeting Abstracts) (2018) 132 (Suppl 1):2327). […] Based on PK-PD modeling, a maintenance dose of 30 mg/kg every 2 weeks is expected to provide more than 90% occupancy of the CD47 receptor in peripheral blood and tumor tissues and thus is expected to provide maximal efficacy while maintaining adequate safety. In solid tumors where the combination therapy is given according to 3-week cycles, dosing of magrolimab every 3 weeks optimizes patient and caregiver convenience. […]
# Up to 6 other patients will then be enrolled and evaluated at a lower dose level in the same manner. • Once the RP2D is determined, the sponsor will open the Randomized Cohort.
# [2] = with 1 mg/kg priming dose, then repeated therapeutic doses; cited from earlier work
# LS 174T cells = assay: Flow cytometry of prophagocytic receptors (CALR, PS) after 24 hours of drug; type: cell-based; details: 24 hours incubation; CALR and PS staining
# Protocol: (§1) A. LS 174T cells were incubated with titrations of irinotecan for 24 hours, washed, and stained for CALR and PS. Flow cytometry was used to analyze and quantify the frequency of stained cells. The shaded areas indicate reported IC50 for each drug. B. LS-174T or HCT-116 cells were pretreated for 24 hours with irinotecan or oxaliplatin at the indicated concentration. The tumor cells were washed, CFSE labeled and cocultured with monocyte-derived macrophages at a 2:1 target to effector ratio for 2 hours. The phagocytic index, defined as the percentage of the macrophages that engulfed tumor cells out of total macrophages, was quantified using flow cytometry. 5F9, Magro=magrolimab; CALR=calreticulin; CFSE=carboxyfluorescein succinimidyl ester; hr=hour; IC50=half-maximal inhibitory concentration; MFI=median fluorescence intensity; PBS=phosphate buffered saline; PS=phosphatidyl serine; SN 38=irinotecan.
# colorectal cancer cells = assay: Cell growth inhibition (Cell-titer Glo, ATP); type: cell-based; details: 24, 48, and 72 hours of drug treatment; normalized to DMSO control
# Protocol: Tumor cells were treated with titrations of irinotecan, oxaliplatin, or vehicle control and monitored for growth after 24, 48, and 72 hours of drug treatment. Cell growth was indirectly determined using a commercially available reagent (Promega, Cell-titer Glo®) which measures intracellular adenosine triphosphate (ATP) levels and directly correlates to the number of live cells. […] DMSO=dimethyl sulfoxide; Oxa=oxaliplatin; SN-38=irinotecan.
# LS-174T or HCT-116 cells = assay: In vitro phagocytosis of pretreated tumor cells by monocyte-derived macrophages; type: cell-based; details: 24 hours pretreatment; 2:1 target to effector ratio, 2 hours coculture
# Protocol: as §1
# mCRC = details: cited from earlier work
# [3] = continuation on bevacizumab versus standard chemotherapy alone
compound,measurement,setting,value
magrolimab: humanized anti-CD47 mAb (human IgG4) that blocks the interaction of CD47 with its receptor and enables phagocytosis of human cancer cells,dose-dependent toxicities,[1],no dose-dependent toxicities have been observed
same,anemia,[2],"initial, transient, and mild anemia that generally normalizes back to baseline over several weeks"
CCc1c2c(nc3ccc(OC(=O)N4CCC(N5CCCCC5)CC4)cc13)-c1cc3c(c(=O)n1C2)COC(=O)[C@]3(O)CC [irinotecan],cell surface expression of prophagocytic receptors,LS 174T cells,upregulates the expression of prophagocytic receptors; also recorded: more effective than oxaliplatin
same,growth inhibition,colorectal cancer cells,growth inhibition; also recorded: more likely to undergo growth inhibition
same,phagocytosis of colorectal cancer cells,LS-174T or HCT-116 cells,promotes the in vitro phagocytosis of colorectal cancer cells; also recorded: more effective than oxaliplatin
bevacizumab: humanized monoclonal antibody targeting circulatory VEGF and preventing tumor angiogenesis,PFS,"mCRC; continuation on bevacizumab after progression on first-line chemotherapy, standard chemotherapy alone 4.1 months",5.7 months
same,OS,"mCRC; continuation on bevacizumab after progression on first-line chemotherapy, standard chemotherapy alone 9.9 months",11.2 months
same,OS HR,mCRC; [3],0.81
same,PFS HR,mCRC; [3],0.68
O=C1[O][Pt]2([NH][C@@H]3CCCC[C@H]3[NH]2)[O]C1=O [oxaliplatin],growth inhibition,colorectal cancer cells,growth inhibition
